US20220117911A1, “METHODS AND COMPOSITIONS FOR MODULATING BLOOD-BRAIN BARRIER” (INSERM (institut National de la Santé et de la Recherche …, priority 2019, published 2022)
Several values for one entry are separate records, joined by “and”; a condition that tells them apart may be missing. Identical values can stand only once. Like-named read-outs stand apart in the source and are kept apart here.

What was measured:
hPBMEC monolayers = assay: TEER of in vitro human BBB model using hPBMECs on Transwell; type: cell-based; settings: 50 μM TNL co-treatment with 1 μM CBD
Description: Human Primary Brain Microvascular Endothelial Cells (hPBMECs). Brain capillary endothelial cells were isolated from surgical resections of patients with brain tumors. […] In brief, brain capillaries were isolated using soft digestion of patient brain peritumoral tissues and then seeded. Brain primary microvascular endothelial cells were shortly amplified and seeded on Transwell® (Corning) with microporous membranes (pore size: 0.4 μm) in monoculture or in co-culture with the same patient's fresh primary human cultured astrocytes. Cells were cultured in EBM-2 medium (Lonza, Basel, Switzerland) supplemented with 20% serum and growth factors (Sigma).
After 24 h co-culture, CBD (1 μM) or the same proportion of vehicle was added into the cell inserts. To study the involvement of TRPV2 in CBD-induced effect, cells were pre-treated with 50 μM TNL for 5 min before adding CBD. The TEER values expressed in Ω·cm2 were recorded after 1, 2, 4, 10, 24, 31, 48, 72, 96, 120 h of CBD treatment.

hCMEC/D3 cells [1] = assay: ATP CellTiter-Glo luminescent cell viability assay in hCMEC/D3 cells; type: cell-based, human
Procedure: FIG. 4: Pharmacological and genetic inhibition of TRPV2 reverse CBD-induced cell death of hCMEC/D3 cells. […] Cell viability was measured by ATP CellTiter-Glo luminescent cell viability assay. […] Cell viability was measured by ATP CellTiter-Glo luminescent cell viability assay. […] (D) Effect of silencing TRPV2 in CBD-induced cell cytotoxicity. […] Data are expressed as mean±SEM.
To further validate the involvement of TRPV2 in CBD-induced cell death of hCMEC/D3 cells, pharmacological and genetic inhibition strategies were used. The number of viable cells was evaluated by quantitating total ATP in cells treated by CBD. […] This further indicates the role of TRPV2 at least partly in the CBD-induced cell death.

TRPV2 = molecular target: T1, TRPV2 (Homo sapiens, UniProt Q9Y5S1); assay: Intracellular Ca2+ signal measurements (Fluo-4-AM) in hCMEC/D3 cells; type: cell-based; settings: for effect on heat-induced [Ca2+]i signals: heat stimulation
T1 construct: endogenous in cells; host or cells: hCMEC/D3 (human cerebral microvessel endothelial cell line)
T1 sequence (Q9Y5S1 1-764): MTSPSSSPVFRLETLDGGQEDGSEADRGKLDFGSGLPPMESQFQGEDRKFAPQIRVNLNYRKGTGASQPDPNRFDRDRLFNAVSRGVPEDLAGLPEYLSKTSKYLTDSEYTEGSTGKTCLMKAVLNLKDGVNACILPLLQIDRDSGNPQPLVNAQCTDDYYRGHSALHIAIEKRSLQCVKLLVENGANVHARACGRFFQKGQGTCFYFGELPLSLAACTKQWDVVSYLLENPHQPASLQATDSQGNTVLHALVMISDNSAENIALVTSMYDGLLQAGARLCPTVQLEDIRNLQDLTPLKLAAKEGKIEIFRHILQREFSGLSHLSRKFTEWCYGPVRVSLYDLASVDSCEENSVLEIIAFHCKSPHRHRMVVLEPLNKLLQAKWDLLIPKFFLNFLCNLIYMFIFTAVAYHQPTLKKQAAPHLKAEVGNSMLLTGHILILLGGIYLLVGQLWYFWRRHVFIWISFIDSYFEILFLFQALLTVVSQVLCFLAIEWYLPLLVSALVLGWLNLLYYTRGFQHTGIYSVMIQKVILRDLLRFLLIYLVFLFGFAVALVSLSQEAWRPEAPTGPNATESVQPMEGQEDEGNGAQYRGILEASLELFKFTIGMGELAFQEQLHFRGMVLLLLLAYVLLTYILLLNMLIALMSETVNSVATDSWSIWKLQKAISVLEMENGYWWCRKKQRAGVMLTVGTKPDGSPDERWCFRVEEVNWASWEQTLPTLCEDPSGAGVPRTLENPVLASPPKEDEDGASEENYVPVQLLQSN
Procedure: Fluorescence measurement of intracellular Ca2+ ([Ca2+]i) concentration was performed in accordance with our optimized protocol as below: hCMEC/D3 cells grown at 100% confluence in 24-well plates were loaded with 2 μM of fluorescent marker, Fluo-4-AM (λex=496 nm, λem=516 nm, F14201, Thermo Fisher Scientific) for 45 min at 37° C. in a loading Hank's buffer (500 μL/well). The cells were washed and replaced with 500 μL/well buffer. After additional 10 min of incubation at 37° C., the 24-well plates were placed into a Victor™ X2 fluorescent heated microplate reader (PerkinElmer, France). When applying antagonists, cells were pre-treated with the compound for 5 min before to start fluorescent signals recording. Data are expressed as F1/F0, where F0 is the average fluorescence of the control group (no agent or no heat stimulation application) and F1 is the actual fluorescence at the corresponding time for the treated group. To visualize clearly and directly the effect of the chemical agonist and antagonist on [Ca2+]i change, hCMEC/D3 cells were seeded in a 8-well ibidi (1.5 polymer coverslip, CliniSciences). Then, the μ-Slide containing 250 μL/well normal buffer was placed on the platform of a ZEISS 515 […] confocal microscope (Carl Zeiss), and fluo-4-AM loaded cells were photographed using a time-lapse mode every 60 s during 20 min in a humidified 5% CO2 atmosphere at 37° C. Images of hCMEC/D3 were analysed in Fiji app running Image J software.
(§1) Data are expressed as mean value±SEM. Statistical analysis was performed using ANOVA with Dunnett a posteriori test to compare different groups with the control. P value<0.05 was considered statistically significant. […] To calculate IC50 of antagonists (RR and TNL), the concentration-response data were fitted to a logistic function as follows: Y=100/(1+10(log IC50−X)×HillSlope) where Y is the normalized response from 100% down to 0%, X is the decimal log of concentration, HillSlope is the slope. Data fitting was all performed in GraphPad Prism 5.01 software.

hCMEC/D3 cells [2] = assay: Wound healing migration assay in hCMEC/D3 cells; type: cell-based, human; settings: for effect on cell migration vs control group: 3 μM CBD
Procedure: Cell migration was determined with wound healing assay in hCMEC/D3 as reported previously20. Briefly, a standard wound was created by scratching the cell monolayer of hCMEC/D3 cells with a sterile 200 μL plastic pipette tip and line makers were made at the bottom of plates to indicate the wound edges. After removing cell fragments, the cells were incubated at 37° C. with medium containing 5% FBS. In order to minimize avoid the effect of cell proliferation on would healing assay, the medium was absent of bFGF. The areas of the wound and wound repair activity were photographed by phase contrast microscope (Olympus, Japan) at 0, 4, 8, 24 h. […] After 3 days, cells were prepared for wound healing assay with 100% confluence. […] To study the effects of silencing TRPV2 channel on cell proliferation, the cells were firstly treated under three conditions mentioned above (Control, negative siRNA, and TRPV2 siRNA) in a 6-wells plate. After transfection, the cells were re-distributed in 12-well plate at a density of 5×10^5 cells/well in 750 μL complete culture medium. When cells were 100% confluent, the wound healing assay was started following the above-mentioned protocol. Assays were performed 3 times in triplicate.

hCMEC/D3 cells [3] = assay: Tubulogenesis, 3D culture of hCMEC/D3 cells in Matrigel; type: cell-based, human; settings: for increase of closing tube number vs control group: 3 μM CBD
Procedure: 3D culture of hCMEC/D3 human BBB endothelial cells was performed using Matrigel (Corning). Matrigel, stored at 4° C. at least 24 h before the assay, was added to a 48-well plate (150 μL/well), and then the plate was incubated at 37° C. for 1 h to allow Matrigel polymerization. […] 500 μL/well fresh complete medium containing cells were distributed in the 48-well plate. After 2 h, 7 h and 24 h incubation, images of the wells in the plate were taken. […] Assays were performed 3 times in triplicate and tubule-like structure lumen count was realized with Image J software.

hCMEC/D3 cells [4] = assay: Trypan blue exclusion assay (number of viable cells) in hCMEC/D3 cells; type: cell-based, human
Description: (§2) To study the effects of TRPV2 agonists and antagonists and silencing TRPV2 on cell viability, the 3-(4,5-dimethyl-2-thiazolyl)-2,5-diphenyl-2-H-tetrazolium bromide assay (MTT, Sigma-Aldrich) evaluating cell mitochondrial activity and Trypan blue exclusion assay evaluating living cells were applied. Cells were firstly treated under three conditions mentioned above (Control, negative siRNA, and TRPV2 siRNA) in a 6-well plate. After transfection, cells were re-distributed in a new plate with the same cell number and the same medium in each well. Cell viability were analysed at 0, 24 h, 48 h, 72 h after re-distribution. For MTT assay, cells were re-distributed in 96-well plates at a density of 1×10^4 cells/well, 6 wells per group, one plate four each time. For Trypan blue exclusion assay, cells were re-distributed in 24-well plates at a density of 5×10^4 cells/well. The number of living cells (not stained by Trypan blue) in each well was counted in a TC20™ Automated Cell Counter (Bio-Rad) at each time point, with 3 wells per group.

hCMEC/D3 cells [5] = assay: MTT cell viability assay in hCMEC/D3 cells; type: cell-based, human; settings: for CBD-induced proliferation level (MTT, CTL=100%): 3 μM CBD
Description: as §2
(§3) After 24 h treatment, the wells were replaced with 100 μL/well fresh complete medium, and 20 μL MTT solution (diluted in PBS buffer, 5 mg·mL-1) was added to each well. And, the plates were kept at 37° C. for an additional 4 h. Then the medium was removed and replaced with 100 μL DMSO per well, in order to dissolve the formazan. The plates were read using a Victor™ X2 microplate reader at 490 nm (PerkinElmer).
as §1

[6] = MTT cell viability assay in hCMEC/D3 cells; type: cell-based, human; settings: human, read-out: decrease of cell viability (MTT)
Description: as §2, §3, §1

**Q.** With `COc1ccc(/C=C/C(=O)Nc2ccccc2C(=O)O)cc1OC` [TNL, tranilast] as the compound, how does the “effect on CBD-induced TEER increase” value (hPBMEC monolayers) read?
**A.** totally inhibited

**Q.** What about the “effect on CBD-induced decrease in cell viability (ATP)” value (hCMEC/D3 cells [1]; 50 μM TNL, 15 μM CBD, 48 h) of the same compound?
**A.** partly reversed

**Q.** What about the “effect on CBD-induced decrease in cell viability (ATP)” value (hCMEC/D3 cells [1]; 100 μM TNL, 30 μM CBD, 2 h) of the same compound?
**A.** reversed

**Q.** And the “effect on CBD-mediated lasting elevation of [Ca2+]i” value (TRPV2; 100 μM TNL, 15 μM CBD)?
**A.** fully abolished

**Q.** What about the “effect on heat-induced [Ca2+]i signals” value (TRPV2; TNL 50 or 100 μM) of the same compound?
**A.** significantly decreased

**Q.** And the “effect on pro-migration effect of CBD” value (hCMEC/D3 cells [2]; 50 μM TNL co-treatment with 3 μM CBD, 8 h)?
**A.** totally inhibited

**Q.** What about the “effect on CBD-induced tube formation” value (hCMEC/D3 cells [3]; 50 μM TNL co-treatment with 3 μM CBD, 7 h) of the same compound?
**A.** inhibited

**Q.** What about the “effect on CBD-induced tube formation” value (hCMEC/D3 cells [3]; 50 μM TNL with 3 μM CBD, 24 h) of the same compound?
**A.** totally reversed

**Q.** What about the “effect on CBD-induced increase of viable cells” value (hCMEC/D3 cells [4]; 50 μM TNL with 3 μM CBD) of the same compound?
**A.** totally inhibited

**Q.** With `CC(C)C[C@H](NC(=O)c1cc2ccccc2s1)C(=O)N1CCN(C(=O)[C@H](CO)NS(=O)(=O)c2ccc(Cl)cc2Cl)CC1` [GSK1016790A] as the compound, how does the “effect on cell viability (MTT)” value (hCMEC/D3 cells [5]; GSK1016790A 1 μM, 24, 48 or 72 h) read?
**A.** did not alter cell viability

**Q.** Which “effect on cell viability (ATP)” value (hCMEC/D3 cells [1]; 30 μM CBD, 2 h) does the source give for `C=C(C)[C@@H]1CCC(C)=C[C@H]1c1c(O)cc(CCCCC)cc1O` [CBD, cannabidiol] here?
**A.** significantly decreased

**Q.** And the “increase of [Ca2+]i area under the curve (AUC) vs control” value (TRPV2; 30 μM CBD, 20 min incubation)?
**A.** 1.5 fold

**Q.** And the “lowest concentration with significant increase of [Ca2+]i AUC” value (TRPV2; 20 min incubation)?
**A.** 0.3 µM

**Q.** What about the “effect on cell migration vs control group” value (hCMEC/D3 cells [2]; 4 h post wound) of the same compound?
**A.** significant pro-migration effect

**Q.** What about the “effect on cell migration vs control group” value (hCMEC/D3 cells [2]; 8 h post wound, p<0.05) of the same compound?
**A.** significant increase

**Q.** And the “increase of closing tube number vs control group” value (hCMEC/D3 cells [3]; 7 h)?
**A.** 41% and 42.0±14.0%

**Q.** And the “increase of closing tube number vs control group” value (hCMEC/D3 cells [3]; 24 h)?
**A.** 73% and 73.0±15.3%

**Q.** And the cytotoxicity at 24 h, 15 μM ([6]; hCMEC/D3 cells silenced for TRPV2 (TRPV2 siRNA))?
**A.** 6%

**Q.** And the cytotoxicity at 24 h, 15 μM ([6]; hCMEC/D3 cells treated with negative (NEG) siRNA)?
**A.** 27%

**Q.** What about the cytotoxicity at 24 h, 15 μM ([6]; hCMEC/D3 cells) of the same compound?
**A.** 37%

**Q.** What about the cytotoxicity at 48 h, 15 μM ([6]; hCMEC/D3 cells) of the same compound?
**A.** 77%

**Q.** What about the cytotoxicity at 72 h, 15 μM ([6]; hCMEC/D3 cells) of the same compound?
**A.** 78%

**Q.** What about the “CBD-induced proliferation level (MTT, CTL=100%)” value (hCMEC/D3 cells [5]; 24 h, siNEG cells) of the same compound?
**A.** 125.9±4.0%

**Q.** And the “CBD-induced proliferation level (MTT, CTL=100%)” value (hCMEC/D3 cells [5]; 24 h, siTRPV2 cells)?
**A.** 113.0±2.1%

**Q.** What about the “increase of MTT absorbance vs control group” value (hCMEC/D3 cells [5]; 10 μM CBD, 24 h) of the same compound?
**A.** 22.0±1.2%

**Q.** What about the “lowest concentration with significantly increased MTT absorbance” value (hCMEC/D3 cells [5]; 24 h) of the same compound?
**A.** 0.3 µM

**Q.** What about the EC50 (hCMEC/D3 cells [5]; Homo sapiens, hCMEC/D3, 24 h, read-out: EC50 of CBD effect on MTT absorbance (cell viability)) of the same compound?
**A.** ~0.3 µM

**Q.** And the “increase of the number of viable cells” value (hCMEC/D3 cells [4]; 3 μM CBD)?
**A.** 1.2 fold

**Q.** Which results are given for `N.N.N.N.N.N.N.N.N.N.N.N.N.N.[Cl-].[Cl-].[Cl-].[Cl-].[Cl-].[Cl-].[O-2].[O-2].[Ru+3].[Ru+3].[Ru+4]` [RR, ruthenium red]?
**A.** effect on CBD-induced elevation of [Ca2+]i (TRPV2; 10 μM RR pretreatment, 15 μM CBD): fully abolished; IC50 (TRPV2; 15 μM CBD, antagonist pre-treatment 5 min, read-out: IC50 of inhibition of CBD-mediated elevation of [Ca2+]i): 7.7 ± 1.7 µM; effect on heat-induced [Ca2+]i signals (TRPV2; RR): significantly decreased
